Source: US20190308988A1, “OPIOID RECEPTOR ANTAGONIST PRODRUGS” (Nirsum Laboratories, Inc., priority 2017, published 2019)
Converted amounts (≈) assume the structure as drawn.

Experiments:
[1] = Polymorph screening of solid state drug substances (Table 23); assay type: physicochemical; settings: stirred 50 °C 72 hours; for Dry method and appearance: dried solid
[2] = Solubility determination in oil (Table 10); settings: for solubility at 24 h: 25 °C, Obs. Temp. 25 °C; for solubility at 24 h / solubility / solubility thermodynamic: thermodynamic from solid; for solubility thermodynamic: water, Equilibrium solubility: Water
Description: A known amount of test substance (˜40 mg) was weighed into the vial, 100 μL of oil was added and heated to 60° C. and then system was slurried to reach equilibrium. […] Extra oil was added into the vial once compound precipitated out and then the system was re-equilibrated at 1000 rpm at room temperature (25° C.). Final concentration was determined by HPLC method as described below in Table 6a and 6b.

[3] = oil or lipid, Approximate Solubility in Excipient: Cottonseed oil, Heating Temp. 60 °C
[4] = oil or lipid, Approximate Solubility in Excipient: Sesame oil, Heating Temp. 60 °C
[5] = 40 °C, oil or lipid, Approximate Solubility in Excipient: Cottonseed oil, Heating Temp. 40 °C, Obs. Temp. 40 °C
[6] = 40 °C, oil or lipid, Approximate Solubility in Excipient: Sesame oil, Heating Temp. 40 °C, Obs. Temp. 40 °C
[7] = 40 °C, organic solvent or mixture, Approximate Solubility in Excipient: Ethanol, Heating Temp. 40 °C, Obs. Temp. 40 °C
[8] = 40 °C, Heating Temp. 40 °C, Obs. Temp. 40 °C
[9] = 40 °C, oil or lipid, Approximate Solubility in Excipient: Cottonseed oil, Heating Temp. 60 °C, Obs. Temp. 40 °C
[10] = 40 °C, oil or lipid, Approximate Solubility in Excipient: Sesame oil, Heating Temp. 60 °C, Obs. Temp. 40 °C

| SMILES | solubility at 24 h [2, 3] [mg/mL] | solubility at 24 h [2, 4] [mg/mL] | solubility [2, 5] [mg/mL] | solubility [2, 6] [mg/mL] | solubility [2, 7] [mg/mL] | solubility thermodynamic [2, 8] [mg/mL] | further results |
| --- | --- | --- | --- | --- | --- | --- | --- |
| CCCCCCCCCCOC(=O)Oc1ccc2c3c1O[C@H]1C(=O)CC[C@@]4(O)C(C2)N(CC2CC2)CC[C@]314 [Compound 10, (4aS,7aR,12bS)-3-(cyclopropylmethyl)-4a-hydroxy-7-oxo-2,3,4,4a,5,6,7,7a-octahydro-1H-4,12-methanobenzofuro[3,2-e]isoquinolin-9-yl decyl carbonate] | – | – | – | – | – | – | XRPD results (Dried) ([1]; Acetone): Pattern A; Dry method and appearance ([1]; Acetone): Evaporation/White wax; XRPD results (Dried) ([1]; EtOAc): Pattern A; Dry method and appearance ([1]; EtOAc): Evaporation/White wax; XRPD results (Dried) ([1]; Heptane): Pattern A; Dry method and appearance ([1]; Heptane): Centrifugation/White wax; XRPD results (Dried) ([1]; Isopropanol): Pattern A; Dry method and appearance ([1]; Isopropanol): Evaporation/White wax; XRPD results (Dried) ([1]; MTBE): Pattern A; Dry method and appearance ([1]; MTBE): Evaporation/White wax |
| CCCCCCCCCCCCOC(=O)Oc1ccc2c3c1O[C@H]1C(=O)CC[C@@]4(O)C(C2)N(CC2CC2)CC[C@]314 [Compound 11, (4aS,7aR,12bS)-3-(cyclopropylmethyl)-4a-hydroxy-7-oxo-2,3,4,4a,5,6,7,7a-octahydro-1H-4,12-methanobenzofuro[3,2-e]isoquinolin-9-yl dodecyl carbonate] | < 51 | < 50 | > 407 | > 407 | > 218 | 0.0005 (≈ 0.000903 mM) | XRPD results (Dried) ([1]; Acetone): Pattern A; Dry method and appearance ([1]; Acetone): Evaporation/white powder; XRPD results (Dried) ([1]; EtOAc): Pattern A; Dry method and appearance ([1]; EtOAc): Evaporation/white powder; XRPD results (Dried) ([1]; Heptane): Pattern B; Dry method and appearance ([1]; Heptane): Evaporation/white powder; XRPD results (Dried) ([1]; Isopropanol): Pattern A; Dry method and appearance ([1]; Isopropanol): Evaporation/white powder; XRPD results (Dried) ([1]; MTBE): Pattern A; Dry method and appearance ([1]; MTBE): Evaporation/white powder; solubility thermodynamic ([2]; after slurry in Heptane, temperatures N/A): 0.0026 mg/mL (≈ 0.0047 mM) |
| C=C1CC[C@@]2(O)C3Cc4ccc(OC(=O)CCC5CCCC5)c5c4[C@@]2(CCN3CC2CC2)[C@H]1O5 [Compound 39, (4aS,7aS,12bS)-3-(cyclopropylmethyl)-4a-hydroxy-7-methylene-2,3,4,4a,5,6,7,7a-octahydro-1H-4,12-methanobenzofuro[3,2-e]isoquinolin-9-yl 3-cyclopentylpropanoate] | 104 to 139 (≈ 224 to 300 mM) | 106 to 141 (≈ 229 to 304 mM) | 225 to 402 (≈ 485 to 868 mM) | > 400 | 150 to 200 (≈ 324 to 431 mM) | 0.018 (≈ 0.0388 mM) | solubility ([2]; 40 °C, oil or lipid, Approximate Solubility in Excipient: Castor oil, Heating Temp. 40 °C, Obs. Temp. 40 °C): > 218 mg/mL |
| CC(C)(C)CC(=O)Oc1ccc2c3c1O[C@H]1C(=O)CC[C@@]4(O)C(C2)N(CC2CC2)CC[C@]314 [Compound 42, (4aS,7aR,12bS)-3-(cyclopropylmethyl)-4a-hydroxy-7-oxo-2,3,4,4a,5,6,7,7a-octahydro-1H-4,12-methanobenzofuro[3,2-e]isoquinolin-9-yl 3,3-dimethylbutanoate] | – | – | < 51 | < 52 | 78 to 93 (≈ 177 to 212 mM) | 0.245 (≈ 0.557 mM) | solubility [2, 9]: < 26 mg/mL; solubility [2, 10]: < 25.8 mg/mL; solubility thermodynamic ([2]; 40 °C, Heating Temp. 60 °C, Obs. Temp. 40 °C): 0.068 mg/mL (≈ 0.155 mM) |
| O=C(CCC1CCCC1)Oc1ccc2c3c1O[C@H]1C(=O)CC[C@@]4(O)C(C2)N(CC2CC2)CC[C@]314 [Compound 43, (4aS,7aR,12bS)-3-(cyclopropylmethyl)-4a-hydroxy-7-oxo-2,3,4,4a,5,6,7,7a-octahydro-1H-4,12-methanobenzofuro[3,2-e]isoquinolin-9-yl 3-cyclopentylpropanoate] | – | – | < 50 | < 50 | > 257 | 0.05 (≈ 0.107 mM) | solubility [2, 9]: 140 to 210 mg/mL (≈ 301 to 451 mM); solubility [2, 10]: 133 to 199 mg/mL (≈ 286 to 427 mM); Equilibrium solubility: Water ([2]; Heating Temp. 40 °C, Obs. Temp. 40 °C): 0.048 mg/mL |
| CCCCCCCCCCCCCCCCOC(=O)OCOc1ccc2c3c1O[C@H]1C(=O)CC[C@@]4(O)C(C2)N(CC2CC2)CC[C@]314 [Compound 47, (((4aS,7aR,12bS)-3-(cyclopropylmethyl)-4a-hydroxy-7-oxo-2,3,4,4a,5,6,7,7a-octahydro-1H-4,12-methanobenzofuro[3,2-e]isoquinolin-9-yl)oxy)methyl hexadecyl carbonate] | > 406 | > 405 | – | – | – | < 0.001 | – |
| CCCCCCCCCCCC(=O)OCOc1ccc2c3c1O[C@H]1C(=O)CC[C@@]4(O)C(C2)N(CC2CC2)CC[C@]314 [Compound 48, (((4aS,7aR,12bS)-3-(cyclopropylmethyl)-4a-hydroxy-7-oxo-2,3,4,4a,5,6,7,7a-octahydro-1H-4,12-methanobenzofuro[3,2-e]isoquinolin-9-yl)oxy)methyl dodecanoate] | > 410 | > 405 | – | – | – | 0.003 (≈ 0.00542 mM) | – |
| CCCCCCCCCCCCCCCC(=O)OCOc1ccc2c3c1O[C@H]1C(=O)CC[C@@]4(O)C(C2)N(CC2CC2)CC[C@]314 [Compound 49, (((4aS,7aR,12bS)-3-(cyclopropylmethyl)-4a-hydroxy-7-oxo-2,3,4,4a,5,6,7,7a-octahydro-1H-4,12-methanobenzofuro[3,2-e]isoquinolin-9-yl)oxy)methyl hexadecanoate] | < 50 | < 51 | – | – | – | 0.028 (≈ 0.0459 mM) | – |
| CCCCCCCCCCCCCCCCCCCC(=O)Oc1ccc2c3c1O[C@H]1C(=O)CC[C@@]4(O)C(C2)N(CC2CC2)CC[C@]314 [Compound 50, (4aS,7aR,12bS)-3-(cyclopropylmethyl)-4a-hydroxy-7-oxo-2,3,4,4a,5,6,7,7a-octahydro-1H-4,12-methanobenzofuro[3,2-e]isoquinolin-9-yl icosanoate] | < 51 | < 52 | – | – | – | < 0.001 | – |
| CCCCCCCCCCCCCCCCCCCCCC(=O)Oc1ccc2c3c1O[C@H]1C(=O)CC[C@@]4(O)C(C2)N(CC2CC2)CC[C@]314 [Compound 51, (4aS,7aR,12bS)-3-(cyclopropylmethyl)-4a-hydroxy-7-oxo-2,3,4,4a,5,6,7,7a-octahydro-1H-4,12-methanobenzofuro[3,2-e]isoquinolin-9-yl docosanoate] | < 50 | < 46 | – | – | – | < 0.001 | – |
| CCCCCCCCCCCCCCCCCC(=O)Oc1ccc2c3c1O[C@H]1C(=O)CC[C@@]4(O)C(C2)N(CC2CC2)CC[C@]314 [Compound 54, (4aS,7aR,12bS)-3-(cyclopropylmethyl)-4a-hydroxy-7-oxo-2,3,4,4a,5,6,7,7a-octahydro-1H-4,12-methanobenzofuro[3,2-e]isoquinolin-9-yl stearate] | < 51 | < 50 | – | – | – | < 0.001 | – |
| CCCCCCCCCCCCCC(=O)Oc1ccc2c3c1O[C@H]1C(=O)CC[C@@]4(O)C(C2)N(CC2CC2)CC[C@]314 [Compound 57, (4aS,7aR,12bS)-3-(cyclopropylmethyl)-4a-hydroxy-7-oxo-2,3,4,4a,5,6,7,7a-octahydro-1H-4,12-methanobenzofuro[3,2-e]isoquinolin-9-yl tetradecanoate] | > 424 | > 417 | – | – | – | < 0.001 | – |
| CCCCCCCCCCCCCCC(=O)Oc1ccc2c3c1O[C@H]1C(=O)CC[C@@]4(O)C(C2)N(CC2CC2)CC[C@]314 [Compound 58, (4aS,7aR,12bS)-3-(cyclopropylmethyl)-4a-hydroxy-7-oxo-2,3,4,4a,5,6,7,7a-octahydro-1H-4,12-methanobenzofuro[3,2-e]isoquinolin-9-yl pentadecanoate] | 102 to 204 (≈ 180 to 360 mM) | 99.4 to 199 (≈ 176 to 351 mM) | – | – | – | 0.0014 (≈ 0.00247 mM) | – |
